This experiment concerns the target T1, Mut-p53 (R175H p53) (Homo sapiens, UniProt P04637, R175H).
T1 construct: a hot spot full length mutant p53 Mut-p53 R175H (R175H p53); expressed in transfected cells; host or cells: H1299 (p53-null) cells stably overexpressing R175H p53; cell extract
The experiment is described as follows: p53/DNA binding ELISA kit (R&D), binding to p53-RE DNA. As to conditions: H1299-R175H p53 cell extracts, vs background (NT). The format is biochemical. The source says:
A commercial p53/DNA binding kit (R&D) was used, according to manufacturer instructions. Briefly, 96 well plates were coated with anti-p53 antibody overnight. Cell extracts containing p53 were reacted with an oligonucleotide that contains a p53 consensus binding site, labeled with biotin, in the presence or absence (NT) of test peptides. WT p53 is expected to bind this DNA binding site as well as to the antibody coating the test wells of the plate. Excess p53 and oligos are washed away and streptavidin-HRP is used to quantify the amount of oligos in the well, which is proportional to the DNA bound by p53. TMB assay was performed to determine HRP levels (450 nm). The results are presented as relative absorbance (at 450 nm) (Y-Axis) of each tested sample. MCF7 and the H1299-Mut-p53 (ts) A135V cells serve as positive controls for WT p53.
For these experiments, a commercial p53/DNA binding kit of “R&D” (Cat-DYC1355-5 Lot-1273366FA) was used, in accordance with manufacturer guide lines. Briefly, 96 well plates are coated with anti-p53 antibody overnight. Cell extracts containing p53 are reacted with an oligonucleotide that contains a p53 consensus binding site (provided in the kit), labeled with biotin, in the presence or absenc.
e (NT) of test peptides. WT p53 is expected to bind this DNA binding site as well as to the antibody coating the test wells of the plate. Excess p53 and oligos were washed away and streptavidin-HRP was used to quantify the amount of oligos in the well, which is proportional to the DNA bound by p53. TMB assay was performed to determine HRP (ES001-1L-K) levels (450 nm).
To measure the effect of the tested peptides on DNA binding of Mut-p53, a commercial ELISA kit, (R&D Systems DYC1355-5, Lot-1273366FA), was used as a high-throughput assay to quantify p53 activation. This kit uses a 96-well plate format. The kit was used according to manufacturer's instructions. Wells were coated with anti-p53 antibody overnight. Cell extracts containing p53 were reacted with a biotin labeled oligonucleotide containing a p53 consensus binding site (included in the kit). WT p53 is expected to bind this oligo as well as the antibody coating the wells. Excess p53 and oligo were washed away in wash buffer (0.05% Tween 20 in PBS, pH 7.2-7.4; R&D Systems, Catalog #WA126). Then, streptavidin-HRP (R&D Systems, Part 890803, provided in the kit) was added for 15-45 min to quantify the amount of oligo in the well, which is proportional to the DNA bound by p53. If the addition of a peptide to Mut-p53 extracts increases ELISA reading compared to background, this peptide is considered as functionally effective and may be selected for further analysis. […] As with the conformational screening, MCF7 and the H1299-Mut-p53 (ts) A135V cells served as positive controls for WT p53. Extracts were added to the wells coated with αp53-Ab, and after several washing steps, streptavidin-HRP was added for 1 hour, and then plates were washed again and TMB (substrate to HRP) assay was performed.
In general terms: ELISA stands for enzyme-linked immunosorbent assay.

YRRLLIGMMWRRRRRRRRRRR [pCAP-68]: the “binding of H1299-R175H p53 extracts to p53-RE DNA” value is reported as “elevate the binding of H1299-R175H p53 extracts to p53-RE DNA”.

(Values after patent US11028127B2, “Peptides capable of reactivating p53 mutants” (Yeda Research and Development Co. Ltd., priority 2013, dated 2021).)
